Source: patent US20230277698A1, “SILICON-CONTAINING LIGAND COMPOUNDS” (Technische Universität München, priority 2020, published 2023)

Key:
[1] = target: human serum albumin (HSA) (Homo sapiens, UniProt P02768); assay: HSA binding by high performance affinity chromatography (HiPAC); type: in vitro ADME; set-up: purchased Daicel, Tokyo, Japan H13H-2433; conditions: lutetium-complexed; Chiralpak HSA column
Experimental: HSA binding of the PSMA-addressing ligands was determined according to a previously published procedure via HPLC (Valko, K.; Nunhuck, S.; Bevan, C.; Abraham, M. H.; Reynolds, D. P., Fast gradient HPLC method to determine compounds binding to human serum albumin. Relationships with octanol/water and immobilized artificial membrane lipophilicity. J Pharm Sci. 2003, 92, 2236-2248). A Chiralpak HSA column (50×3 mm, 5 μm, H13H-2433, Daicel, Tokyo, Japan) was used at a constant flow rate of 0.5 mL/min at rt. Mobile phase A was a freshly prepared 50 mM aqueous solution of NH4OAc (pH 6.9) and mobile phase B was isopropanol (HPLC grade, VWR). The applied gradient for all experiments was 100% A (0 to 3 min), followed by 80% A (3 to 40 min). Prior to the experiment, the column was calibrated using nine reference substances with a HSA binding, known from literature, in the range of 13 to 99% (Valko, K.; Nunhuck, S.; Bevan, C.; Abraham, M. H.; Reynolds, D. P., J Pharm Sci. 2003, 92, 2236-2248; Yamazaki, K.; Kanaoka, M., Computational prediction of the plasma protein-binding percent of diverse pharmaceutical compounds. J Pharm Sci. 2004, 93, 1480-1494). All substances, including the examined PSMA ligands, were dissolved in a 1:1 mixture (v/v) of isopropanol and a 50 mM aqueous solution of NH4OAc (pH 6.9) with a final concentration of 0.5 mg/mL. Non-linear regression was established with the OriginPro 2016G software (Northampton, United States).
FIG. 1 is an exemplary sigmoidal plot, showing the correlation between human serum albumin (HSA) binding of selected reference substances and retention time (tR). The underlying values of HSA binding also shown in the corresponding table and were obtained from literature (Valko, K.; Nunhuck, S.; Bevan, C.; Abraham, M. H.; Reynolds, D. P., J Pharm Sci. 2003, 92, 2236-2248; Yamazaki, K.; Kanaoka, M., J Pharm Sci. 2004, 93, 1480-1494). Log tR: logarithmic value of experimentally determined retention time. Log K HSA: logarithmic value of HSA binding values.

[2] = system: LNCaP tumor-bearing CB17-SCID mice; assay: Biodistribution studies 24 h p.i.; type: in vivo; conditions: 177Lu-labelled, mean±SD, n=4-5
Experimental: All animal experiments were conducted in accordance with general animal welfare regulations in Germany (German animal protection act, as amended on 18 May 2018, Art. 141 G v. 29.3.2017|626, approval no. 55.2-1-54-2532-71-13) and the institutional guidelines for the care and use of animals. To establish tumor xenografts, LNCaP cells (approx. 10^7 cells) were suspended in 200 μL of a 1:1 mixture (v/v) of DMEM F-12 and Matrigel (BD Biosciences, Germany), and inoculated subcutaneously onto the right shoulder of 6-8 weeks old CB17-SCID mice (Charles River, Sulzfeld, Germany). Mice were used for experiments when tumors had grown to a diameter of 5-10 mm (3-6 weeks after inoculation).
Approximately 5-10 MBq (0.1-0.2 nmol) of the radioactive-labelled PSMA inhibitors were injected into the tail vein of LNCaP tumor-bearing male CB-17 SCID mice and sacrificed after 24 h post injection. Selected organs were removed, weighted and measured in a γ-counter.
FIG. 10 and the following table show the biodistribution data 24 h p.i. of ^177Lu-labeled compounds in LNCaP tumor-bearing CB17-SCID mice. Data are expressed as mean±SD (n=4-5).

human serum albumin (HSA), sequence (P02768 25-609): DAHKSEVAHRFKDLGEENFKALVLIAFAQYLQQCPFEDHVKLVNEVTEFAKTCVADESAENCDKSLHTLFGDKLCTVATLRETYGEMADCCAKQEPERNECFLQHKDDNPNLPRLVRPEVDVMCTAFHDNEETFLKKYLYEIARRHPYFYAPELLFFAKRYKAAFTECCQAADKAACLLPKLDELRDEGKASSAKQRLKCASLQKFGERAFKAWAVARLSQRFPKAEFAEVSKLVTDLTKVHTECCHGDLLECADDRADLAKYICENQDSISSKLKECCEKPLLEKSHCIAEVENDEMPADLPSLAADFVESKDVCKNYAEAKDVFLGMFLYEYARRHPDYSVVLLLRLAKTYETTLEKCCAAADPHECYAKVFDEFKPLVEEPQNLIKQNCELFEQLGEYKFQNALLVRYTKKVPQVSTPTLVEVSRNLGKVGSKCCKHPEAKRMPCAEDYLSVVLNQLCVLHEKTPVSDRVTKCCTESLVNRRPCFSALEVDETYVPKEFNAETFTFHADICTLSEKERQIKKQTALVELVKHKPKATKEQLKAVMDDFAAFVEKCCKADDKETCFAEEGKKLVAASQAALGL

CC(C)(C)[Si](F)(c1ccc(C(=O)NC[C@@H](NC(=O)CN2CCN(CC(=O)O)CCN(CC(=O)O)CCN(CC(=O)O)CC2)C(=O)N[C@H](CCCCNC(=O)CCC(=O)NCCC[C@@H](NC(=O)CC[C@H](NC(=O)N[C@@H](CCC(=O)O)C(=O)O)C(=O)O)C(=O)O)C(=O)O)cc1)C(C)(C)C [rhPSMA-10, reference compound]
HSA-binding HiPAC [1]: 94.0%
biodistribution: tumor ([2]; LNCaP xenograft): 10.2 ± 2.8 % ID/g
biodistribution: blood ([2]; i.v. tail vein): 0.004 ± 0.001 % ID/g
biodistribution: adrenals [2]: 0.09 ± 0.06 % ID/g
biodistribution: bone [2]: 0.02 ± 0.01 % ID/g
biodistribution: heart [2]: 0.03 ± 0.01 % ID/g
biodistribution: intestine [2]: 0.11 ± 0.06 % ID/g
biodistribution: kidneys [2]: 4.1 ± 2.3 % ID/g
biodistribution: liver [2]: 0.28 ± 0.13 % ID/g
biodistribution: lung [2]: 0.05 ± 0.01 % ID/g
biodistribution: muscle [2]: 0.010 ± 0.003 % ID/g
biodistribution: pancreas [2]: 0.02 ± 0.01 % ID/g
biodistribution: spleen [2]: 0.22 ± 0.11 % ID/g
biodistribution: stomach [2]: 0.04 ± 0.01 % ID/g
